Experimental findings from patent US7888351B2, “Organic compounds” (Novartis AG, priority 2006, dated 2011) are described below.

The term IC50 denotes the midpoint of a concentration-inhibition curve.

This assay addresses T1, human DPP-IV (Homo sapiens, UniProt P27487).
T1 construct: Human DPP-IV consisting of amino acids 39 to 766 followed by a C-terminal Streptavidin-tag; Streptavidin-tag (C); made in house
The assay can be described thus: Activity assay: inhibitory activity to human DPP-IV (fluorogenic substrate H-Gly-Pro-AMC). It counts as biochemical. The conditions noted are these: substrate H-Gly-Pro-AMC 10 μM, enzyme 10 pM, room temperature, 1 hour; read-out: hDPPIV IC50. Here is the method: Various compounds of the invention were tested for their inhibitory activity to human DPP-IV.
Human DPP-IV consisting of amino acids 39 to 766 followed by a C-terminal Streptavidin-tag was expressed using the baculovirus system and purified to >80% purity. The enzyme was stored in 25 mM Tris buffer, pH 9.0, containing 300 mM NaCl at −80° C. The fluorogenic substrates H-Gly-Pro-AMC was purchased from Bachem AG (Bubendorf, Switzerland). The substrate was kept as a 5 mM stock solution in DMSO at −20° C. All other chemicals were purchased from Sigma (Buchs, Switzerland).
The assay buffer for the DPP-IV reaction was 25 mM Tris/HCl, pH 7.5, containing 140 mM NaCl, 10 mM KCl and 0.05% (w/v) CHAPS.
The test compounds were dissolved in 90% DMSO/10% H2O (v/v). Serial dilutions of the compounds from 3 mM to 0.03 μM in 90% DMSO/10% H2O (v/v) followed by a 1:33.3 dilution in assay buffer was done in 96-well polypropylene plates using a CyBio Dilus 8-channel pipetter (CyBio AG, Jena, Germany) with tip change after each pipetting step. The compound solutions as well as the substrate and the enzyme solutions were transferred to the assay plates (384-well black Cliniplate; cat. no. 95040020 Labsystems Oy, Finland) by means of a CyBi-Well 96-channel pipetter (CyBio AG, Jena, Germany).
Enzyme kinetics were measured by mixing 10 μl of a 3-fold concentrated substrate solution in assay buffer (final substrate concentration was 10 μM) with 10 μl of the corresponding compound solution. The reactions were initiated by addition of 10 μl of a 3-fold concentrated solution of the enzyme in assay buffer. Final enzyme (active site) concentrations in the assay was 10 pM for DPP-IV. Fluorescence product (AMC) formation was monitored for 1 hour at room temperature at 35 second intervals by measuring the fluorescence emission at 500 nm using an exitation wavelength of 350 nm in a TECAN Ultra fluorescence reader (TECAN, Maennedorf, Switzerland). The fluorescence in each well was excited by one flash per measurement. The Origin software package (Origin 7.5 Mircocal, Northampton, Mass., USA) was used to generate all graphs and to perform the IC50 calculations.

T1 sequence (P27487 39-766): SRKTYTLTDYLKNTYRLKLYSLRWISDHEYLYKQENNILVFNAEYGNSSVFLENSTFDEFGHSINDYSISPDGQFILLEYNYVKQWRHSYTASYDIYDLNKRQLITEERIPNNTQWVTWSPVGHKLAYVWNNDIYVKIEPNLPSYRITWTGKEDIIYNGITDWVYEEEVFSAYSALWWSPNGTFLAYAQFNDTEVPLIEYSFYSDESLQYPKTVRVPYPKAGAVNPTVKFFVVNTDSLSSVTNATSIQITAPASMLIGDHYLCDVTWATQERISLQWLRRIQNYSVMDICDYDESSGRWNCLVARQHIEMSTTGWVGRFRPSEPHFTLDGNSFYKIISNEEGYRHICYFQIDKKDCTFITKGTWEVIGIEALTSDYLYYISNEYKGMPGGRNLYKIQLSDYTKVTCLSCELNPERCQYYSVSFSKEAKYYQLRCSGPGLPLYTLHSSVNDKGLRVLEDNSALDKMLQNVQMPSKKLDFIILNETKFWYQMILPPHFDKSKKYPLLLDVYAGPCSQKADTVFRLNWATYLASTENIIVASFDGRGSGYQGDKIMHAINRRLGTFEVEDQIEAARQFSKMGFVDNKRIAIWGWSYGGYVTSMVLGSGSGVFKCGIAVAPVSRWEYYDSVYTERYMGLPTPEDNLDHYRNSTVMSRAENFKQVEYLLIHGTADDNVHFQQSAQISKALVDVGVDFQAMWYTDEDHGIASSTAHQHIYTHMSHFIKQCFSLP

For the compound `N[C@H](Cc1cc(F)c(F)cc1F)[C@@H]1C[C@H]2CC[C@@H](C1)N2C(=O)CNC(=O)C1(O)CC1` [Example E7, 1-Hydroxy-cyclopropanecarboxylic acid (2-{3-exo-[(R)-1-amino-2-(2,4,5-trifluoro-phenyl)-ethyl]-8-aza-bicyclo[3.2.1]oct-8-yl}-2-oxo-ethyl)-amide], the IC50 came to 0.6 nM.

On to `C[C@](O)(C(=O)N1[C@@H]2CC[C@H]1C[C@H]([C@H](N)Cc1cc(F)c(F)cc1F)C2)c1ccccc1` [Example G4, (R)-1-{3-exo-[(R)-1-Amino-2-(2,4,5-trifluoro-phenyl)-ethyl]-8-aza-bicyclo[3.2.1]oct-8-yl}-2-hydroxy-2-phenyl-propan-1-one], for which the IC50 is 10 nM.

Regarding `Cc1cnc(C(=O)NCCS(=O)(=O)N2[C@@H]3CC[C@H]2C[C@H]([C@H](N)Cc2cc(F)c(F)cc2F)C3)cn1` [Example D1, 5-Methyl-pyrazine-2-carboxylic acid (2-{3-exo-[(R)-1-amino-2-(2,4,5-trifluoro-phenyl)-ethyl]-8-aza-bicyclo[3.2.1]octane-8-sulfonyl}-ethyl)-amide], the IC50 was found to be 7.7 nM.

For the compound `N[C@H](Cc1cc(F)c(F)cc1F)[C@@H]1C[C@H]2CC[C@@H](C1)N2C(=O)CS(=O)(=O)N1Cc2ccccc2C1` [Example H13, 1-{3-exo-[(R)-1-Amino-2-(2,4,5-trifluoro-phenyl)-ethyl]-8-aza-bicyclo[3.2.1]oct-8-yl}-2-(1,3-dihydro-isoindole-2-sulfonyl)-ethanone], the IC50 was found to be 7 nM.
